# Like-named read-outs stand apart in the source and are kept apart here.
# Experiments:
# [1] = system: GDF8; assay: AlphaScreen SureFire p-SMAD3 (Ser423/425) assay, GDF8-stimulated cells; format: cell-based
# Summary of the method: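 Lysate (5 μL) went into 384-well shallow plates with 5 μL of Reaction Buffer, Activation Buffer and AlphaScreen Acceptor bead mix. Plates were sealed, kept dark and shaken for 2 hours at room temperature. Donor beads in dilution buffer (2 μL) were added for another 1½ hours, and p-SMAD3 signal was read on a Synergy-4 or Enspire reader.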
# [2] = system: TGF-β; assay: AlphaScreen SureFire p-SMAD3 (Ser423/425) assay, TGF-β-stimulated cells; format: cell-based
# Summary of the method: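 The p-SMAD-3 (Ser423/425) SureFire assay measured phosphorylation of endogenous SMAD-3 in cell lysates. Cells were plated overnight in collagen-coated plates, exposed to three-fold serially diluted compounds for about 10 minutes, then stimulated with TGFβ. Lysates (5 μL) received acceptor bead mix for 2 hours, then donor beads for 1½ hours before AlphaScreen reading.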
# [3] = Mus musculus, MPC-11, p-SMAD3 (Ser423/425) AlphaScreen in cell lysate, MPC11, GDF8 stimulation, read-out: GDF8: inhibition of GDF8 signaling, GDF pSMAD (MPC11)
# [4] = Mus musculus, p-SMAD3 (Ser423/425) AlphaScreen in cell lysate, MPC-11, TGF-β stimulation, read-out: TGF-β: inhibition of TGF-β signaling, TGF-β pSMAD (MPC-11)
# [5] = Mus musculus, MPC-11, read-out: GDF8: inhibition of GDF8 signaling, GDF pSMAD (MPC11), p-SMAD3 (Ser423/425) AlphaScreen in cell lysate, GDF8 stimulation
# [6] = Mus musculus, MPC-11, read-out: TGF-β: inhibition of TGF-β signaling, TGF-β pSMAD (MPC-11), p-SMAD3 (Ser423/425) AlphaScreen in cell lysate, TGF-β stimulation
# [7] = read-out: GDF8: inhibition of GDF8 signaling, GDF pSMAD (MPC11), p-SMAD3 (Ser423/425) AlphaScreen in cell lysate, GDF8 stimulation
# [8] = read-out: TGF-β: inhibition of TGF-β signaling, TGF-β pSMAD (MPC-11), p-SMAD3 (Ser423/425) AlphaScreen in cell lysate, TGF-β stimulation
SMILES,"IC50 [1, 3]","IC50 [2, 4]",also measured
"Fc1ccc(Cl)cc1-c1nc2n(c1-c1ccc3ncccc3c1)CCC2 [Compound 338, 6-(2-(5-chloro-2-fluoropheny)-6,7-dihydro-5H-pyrrolo[1,2-a]imidazol-3-yl)quinoline]",< 50 nM,< 50 nM,
"Cc1cc(F)c(-c2nc3n(c2-c2ccc4nccn4c2)CCC3)cc1F [Compound 48, 6-(2-(2,5-difluoro-4-methylphenyl)-6,7-dihydro-5H-pyrrolo[1,2-a]imidazol-3-yl)imidazo[1,2-c]pyridine]",> 1000 nM,> 1000 nM,
"Fc1cccc(F)c1-c1nc2n(c1-c1ccc3nccnc3c1)CCC2 [Compound 215, 6-(2-(2,6-difluorophenyl)-6,7-dihydro-5H-pyrrolo[1,2-a]imidazol-3-yl)quinoxaline]",> 1000 nM,> 1000 nM,
"Cc1c(F)ccc(-c2nc3n(c2-c2ccc4ncsc4c2)CCC3)c1Cl [Compound 313, 6-(2-(2-chloro-4-fluoro-3-methylphenyl)-6,7-dihydro-5H-pyrrolo[1,2-a]imidazol-3-yl)benzo[d]thiazole]",,,"IC50 [1, 5]: 100 to 1000 nM; IC50 [2, 6]: 100 to 1000 nM"
"Cc1cc(-c2nc3n(c2-c2ccc4cn[nH]c4c2)CCC3)ccc1F [Compound 177, 6-(2-(4-fluoro-3-methylphenyl)-6,7-dihydro-5H-pyrrolo[1,2-a]imidazol-3-yl)-1H-indazole]",50 to 100 nM,100 to 1000 nM,
"COCCOc1cnc2ccc(-c3c(-c4ccc(F)c(Cl)c4)nc4n3CCC4)cc2n1 [Compound 355, 7-(2-(3-chloro-4-fluorophenyl)-6,7-dihydro-5H-pyrrolo[1,2-a]imidazol-3-yl)-2-(2-methoxyethoxy)quinoxaline]",,,"IC50 [1, 5]: 100 to 1000 nM; IC50 [2, 6]: 100 to 1000 nM"
"Fc1ccc(-c2nc3n(c2-c2ccc4ncnn4c2)CCC3)c(F)c1Cl [Compound 81, 6-(2-(3-chloro-2,4-difluorophenyl)-6,7-dihydro-5H-pyrrolo[1,2-a]imidazol-3-yl)-[1,2,4]triazolo[1,5-a]pyridine]",,,"IC50 [1, 5]: 100 to 1000 nM; IC50 [2, 6]: 100 to 1000 nM"
"Cc1ccc(-c2ccc3nccnc3c2)cc1-c1nc2n(c1-c1ccc3nccnc3c1)CCC2 [Compound 341, 6-(4-methyl-3-(3-(quinoxalin-6-yl)-6,7-dihydro-5H-pyrrolo[1,2-a]imidazol-2-yl)phenyl)quinoxaline]",,,"IC50 [1, 5]: > 1000 nM; IC50 [2, 6]: > 1000 nM"
"Fc1cccc(F)c1-c1nc2n(c1-c1ccc3cn[nH]c3c1)CCC2 [Compound 213, 6-(2-(2,6-difluorophenyl)-6,7-dihydro-5H-pyrrolo[1,2-a]imidazol-3-yl)-1H-indazole]",> 1000 nM,> 1000 nM,
"Cc1ccc(F)cc1-c1nc2n(c1-c1ccc3[nH]ncc3c1)CCC2 [Compound 300, 5-(2-(5-fluoro-2-methylphenyl)-6,7-dihydro-5H-pyrrolo[1,2-a]imidazol-3-yl)-1H-indazole]",,,"IC50 [1, 5]: > 1000 nM; IC50 [2, 6]: > 1000 nM"
"Cc1cc(F)ccc1-c1nc2n(c1-c1ccc3[nH]ncc3c1)CCC2 [Compound 292, 5-(2-(4-fluoro-2-methylphenyl)-6,7-dihydro-5H-pyrrolo[1,2-a]imidazol-3-yl)-1H-indazole]",,,"IC50 [1, 5]: > 1000 nM; IC50 [2, 6]: > 1000 nM"
"Cc1cc(-c2nc3n(c2-c2ccc4ncsc4c2)CCC3)c(Cl)cc1F [Compound 323, 6-(2-(2-chloro-4-fluoro-5-methylphenyl)-6,7-dihydro-5H-pyrrolo[1,2-a]imidazol-3-yl)benzo[d]thiazole]",,,"IC50 [1, 7]: > 1000 nM; IC50 [2, 8]: > 1000 nM"
"Cc1cc(F)c(Cl)cc1-c1nc2n(c1-c1ccc3ncccc3c1)CCC2 [Compound 299, 6-(2-(5-chloro-4-fluoro-2-methylphenyl)-6,7-dihydro-5H-pyrrolo[1,2-a]imidazol-3-yl)quinoline]",,,"IC50 [1, 5]: 100 to 1000 nM; IC50 [2, 6]: > 1000 nM"
"COc1ccc(-c2nc3n(c2-c2ccc4ncccc4c2)CCC3)cc1 [Compound 352, 6-(2-(4-methoxyphenyl)-6,7-dihydro-5H-pyrrolo[1,2-a]imidazol-3-yl)quinoline]",,,"IC50 [1, 5]: > 1000 nM; IC50 [2, 6]: > 1000 nM"
"Cc1cc(-c2nc3n(c2-c2ccc4ncsc4c2)CCC3)c(Cl)cc1F [Compound 317, 6-(2-(2-chloro-4-fluoro-5-methylphenyl)-6,7-dihydro-5H-pyrrolo[1,2-a]imidazol-3-yl)benzo[d]thiazole]",,,"IC50 [1, 7]: 50 to 100 nM; IC50 [2, 8]: 100 to 1000 nM"
"Cc1cc(-c2nc3n(c2-c2ccc4cn[nH]c4c2)CCC3)c(F)cc1Cl [Compound 252, 6-(2-(4-chloro-2-fluoro-5-methylphenyl)-6,7-dihydro-5H-pyrrolo[1,2-a]imidazol-3-yl)-1H-indazole]",> 1000 nM,> 1000 nM,

# Continued, in another order:
"IC50 [1, 3]","IC50 [2, 4]",SMILES,also measured
< 50 nM,50 to 100 nM,"Cc1cc(-c2nc3n(c2-c2ccc4nccnc4c2)CCC3)c(F)cc1F [Compound 270, 6-(2-(2,4-difluoro-5-methylphenyl)-6,7-dihydro-5H-pyrrolo[1,2-a]imidazol-3-yl)quinoxaline]",
100 to 1000 nM,100 to 1000 nM,"Fc1cc(F)c(-c2nc3n(c2-c2ccc4cn[nH]c4c2)CCC3)cc1F [Compound 217, 6-(2-(2,4,5-trifluorophenyl)-6,7-dihydro-5H-pyrrolo[1,2-a]imidazol-3-yl)-1H-indazole]",
< 50 nM,< 50 nM,"CC(=O)N1CCn2c1nc(-c1cc(F)cc(F)c1F)c2-c1ccc2ncnn2c1 [Compound 109, 1-(5-([1,2,4]triazolo[1,5-a]pyridin-6-yl)-6-(2,3,5-trifluorophenyl)-2,3-dihydro-1H-imidazo[1,2-a]imidazol-1-yl)ethan-1-one]",
< 50 nM,50 to 100 nM,"Cc1cccc(-c2nc3n(c2-c2ccc4[nH]ncc4c2)CCC3)c1 [Compound 168, 5-(2-(m-tolyl)-6,7-dihydro-5H-pyrrolo[1,2-a]imidazol-3-yl)-1H-indazole]",
< 50 nM,50 to 100 nM,"c1ccc(-c2nc3n(c2-c2ccc4ncccc4c2)CCC3)nc1 [Compound 369, 6-(2-(pyridin-2-yl)-6,7-dihydro-5H-pyrrolo[1,2-a]imidazol-3-yl)quinoline]",
> 1000 nM,> 1000 nM,Fc1ccc(-c2nc3n(c2-c2ccc4nnc(C(F)(F)F)n4c2)CCC3)c(F)c1F [Compound 35],
> 1000 nM,> 1000 nM,"CC(C)c1nnc2ccc(-c3c(-c4ccc(F)c(F)c4F)nc4n3CCC4)cn12 [Compound 23, 3-isopropyl-6-(2-(2,3,4-trifluorophenyl)-6,7-dihydro-5H-pyrrolo[1,2-a]imidazol-3-yl)-[1,2,4]triazolo[4,3-a]pyridine]",
> 1000 nM,> 1000 nM,"Cc1cc(-c2nc3n(c2-c2ccc4nccn4c2)CCC3)cc(Cl)c1F [Compound 41, 6-(2-(3-chloro-4-fluoro-5-methylphenyl)-6,7-dihydro-5H-pyrrolo[1,2-c]imidazol-3-yl)imidazo[1,2-c]pyridine]",
100 to 1000 nM,> 1000 nM,"Cc1cc(-c2nc3n(c2-c2ccc4[nH]ncc4c2)CCC3)cc(C)c1F [Compound 276, 5-(2-(4-fluoro-3,5-dimethylphenyl)-6,7-dihydro-5H-pyrrolo[1,2-a]imidazol-3-yl)-1H-indazole]",
> 1000 nM,100 to 1000 nM,"Fc1cc(F)c(F)c(-c2nc3n(c2-c2ccc4ncccc4c2)CCCN3)c1 [Compound 165, 6-(2-(2,3,5-trifluorophenyl)-5,6,7,8-tetrahydroimidazo[1,2-a]pyrimidin-3-yl)quinoline]",
50 to 100 nM,100 to 1000 nM,"Cc1ccc(F)c(-c2nc3n(c2-c2ccc4ncccc4c2)CCC3)c1 [Compound 356, 6-(2-(2-fluoro-5-methylphenyl)-6,7-dihydro-5H-pyrrolo[1,2-a]imidazol-3-yl)quinoline]",
> 1000 nM,> 1000 nM,"Cc1ccccc1-c1nc2n(c1-c1ccc3ncccc3c1)CCC2 [Compound 307, 6-(2-(o-tolyl)-6,7-dihydro-5H-pyrrolo[1,2-a]imidazol-3-yl)quinoline]",
< 50 nM,< 50 nM,"Fc1ccc(-c2nc3occn3c2-c2ccc3ncsc3c2)cc1 [Compound 127, 5-(benzo[d]thiazol-6-yl)-6-(4-fluorophenyl)imidazo[2,1-b]oxazole]",
> 1000 nM,> 1000 nM,"Cc1cc(-c2nc3n(c2-c2ccc4[nH]ncc4c2)CCC3)cc(Cl)c1F [Compound 272, 5-(2-(3-chloro-4-fluoro-5-methylphenyl)-6,7-dihydro-5H-pyrrolo[1,2-a]imidazol-3-yl)-1H-indazole]",
50 to 100 nM,100 to 1000 nM,"FC(F)(F)c1cccc(-c2nc3n(c2-c2ccc4cn[nH]c4c2)CCC3)c1 [Compound 182, 6-(2-(3-(trifluoromethyl)phenyl)-6,7-dihydro-5H-pyrrolo[1,2-a]imidazol-3-yl)-1H-indazole]",
100 to 1000 nM,100 to 1000 nM,"Fc1ccc(-c2nc3n(c2-c2ccc4ncccc4c2)CCC3)cc1Cl [Compound 267, 6-(2-(3-chloro-4-fluoropheny)-6,7-dihydro-5H-pyrrolo[1,2-a]imidazol-3-yl)quinoline]",

# — US10696693B2, “Fused imidazole derivatives as TGF-beta inhibitors” (Rigel Pharmaceuticals, Inc., priority 2014, dated 2020)
